From PubChem BioAssay (NCI)
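Grown in 96-well plates, cells were treated for 48 hours with each compound at five concentrations. Insufficient inhibition: endpoint recorded as highest concentration tested. GI50 is the concentration that inhibits growth by half. TGI is the concentration that stops growth completely.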

How the values were obtained:
Assay in all cases: NCI anticancer screen, dose series, 48 h
[1] = test system: SNB-75 CNS
[2] = test system: COLO 205 colon
[3] = test system: NCI/ADR-RES ovarian
[4] = test system: LOX IMVI melanoma
[5] = test system: NCI-H23 lung
[6] = test system: MALME-3M melanoma
[7] = test system: NCI-H522 lung
[8] = test system: CAKI-1 renal
[9] = test system: SK-MEL-28 melanoma
[10] = test system: OVCAR-5 ovarian

Structure (SMILES) | GI50 [1] [µM] | TGI [1] [µM] | GI50 [2] [µM] | TGI [2] [µM] | GI50 [3] [µM] | TGI [3] [µM] | GI50 [4] [µM] | TGI [4] [µM] | GI50 [5] [µM] | TGI [5] [µM] | GI50 [6] [µM] | TGI [6] [µM] | GI50 [7] [µM] | TGI [7] [µM] | GI50 [8] [µM] | TGI [8] [µM] | GI50 [9] [µM] | TGI [9] [µM] | GI50 [10] [µM] | TGI [10] [µM]
Nc1nc(N)c(-c2ccc(Cl)c(Cl)c2)c(CP(Cl)(Cl)(Cl)Br)n1 | 39.7 | > 100 | 10.4 | > 100 | 11.7 | > 100 | 2.72 | > 100 | 19.6 | > 100 | 18.4 | 72.1 | 21.2 | > 100 | 14.7 | > 100 | 20.6 | > 100 | 6.96 | > 100
O=C(CCl)Nc1ccc(Cc2ccc(NC(=O)CCl)cc2)cc1 |  | > 29.3 | 1.97 | 4.12 | 2.84 | > 100 | 0.784 | 2.35 | 1.77 | 4.52 | 1.39 | 3.17 | 1.47 | 3.5 | 1.62 | 3.38 | 2.15 | 6.06 | 2.27 | 5.52
O=c1[nH]c(=O)n(C2OC(CO)C(O)C2O)cc1F (stereo not drawn) |  | > 100 | 0.0447 | 18.7 |  | > 100 | 0.016 | 7.18 |  | > 43.9 |  | 47.5 | 0.349 | 30.6 | 0.0104 | 18.1 | 0.0471 | > 100 | 0.0442 | 26
CCS(=O)(=O)N1CCN(c2ccc(Nc3ncc(C(N)=O)c(NC4CC4)n3)cc2)CC1 | 2.46 | 9.53 | 2.61 | 21.2 | 9.59 | > 100 | 3.07 | > 100 | 5.46 | > 100 | 20 | 85.2 | 14.1 | 44.1 | 5.46 | 28.5 | 13.6 | 35.6 | 36.8 | > 100
COc1cccc(-c2nn(-c3ccccc3)cc2-c2ccnc(NCCCNS(=O)(=O)c3ccc(C(F)(F)F)cc3)c2)c1 | 5.1 | > 100 | 2.5 | 7.77 | 3.86 | > 100 | 4.86 | > 100 | 4.86 | > 100 | 3.4 | > 100 | 2.51 | 23 | 5.76 | > 100 | 9.1 | > 100 | > 100 | > 100
Cc1cn(C2CC(O)C(COC(N)=O)O2)c(=O)[nH]c1=O (stereo not drawn) |  | > 100 |  | > 100 |  | > 100 |  | > 100 |  | > 100 |  | > 100 |  | > 100 |  | > 100 |  | > 100 |  | > 100
CCC(C)C(=O)OC1CCC=C2C=CC(C)C(CCC3CC(O)CC(=O)O3)C21 (stereo not drawn) |  | > 75.9 |  | 32.4 |  | > 100 |  | > 100 |  | > 100 |  | > 100 |  | 21 |  | 29 |  | > 100 |  | > 100
Cc1ccc2c(c1)C(O)(c1ccccc1)CCS2 (stereo not drawn) |  | > 100 |  | > 100 |  | > 100 |  | 36 |  | 89.9 |  | 93.5 |  | 44.6 |  | 53.6 |  | > 100 |  | 80.6
C=C1C(=O)O[C@H]2[C@H]1CC/C(COC(=O)/C=C\C(=O)NCc1ccc(Cn3c(=O)sn(-c4ccc(Cl)cc4)c3=O)cc1)=C\CC[C@@]1(C)O[C@@H]21 | 0.623 | 1.31 | 0.564 | 1.59 | 1.25 | 5.06 | 0.193 | 0.789 | 0.884 | 1.88 | 0.852 | 1.63 | 0.632 | 1.55 | 0.328 | 1.03 | 0.816 | 1.55 | 0.834 | 1.75
CCSCCCC(=O)O |  | > 100 |  | > 100 |  | > 100 |  | > 100 |  | > 100 |  | > 100 |  | > 100 |  | > 100 |  | > 100 |  | > 100
CC(C)(C)OC(=O)N1Cc2cc3ccccc3nc2C1CO (stereo not drawn) | > 100 | > 100 | > 100 | > 100 | > 100 | > 100 | > 100 | > 100 | > 100 | > 100 | > 100 | > 100 | > 100 | > 100 | > 100 | > 100 | > 100 | > 100 | > 100 | > 100
COc1ccc2c(c1)C(=O)c1c-2n(CCCCl)c(=O)c2cc(N)ccc12 | > 51.7 | > 85.7 | > 100 | > 100 | > 100 | > 100 | 98.2 | > 100 | > 100 | > 100 | > 100 | > 100 | > 84.4 | > 100 | > 100 | > 100 | > 100 | > 100 | > 61.7 | > 100
c1ccc2c(c1)[nH]c1c3ccccc3sc21 |  | > 100 |  | > 100 |  | > 100 |  | > 100 |  | > 100 |  | > 100 |  | > 100 |  | > 100 |  | > 100 |  | > 100
CCC(=C(c1ccc(OCCN2CCCC2)cc1)c1ccc(OCCN2CCCC2)cc1)c1ccc(Cl)cc1 | 0.921 | 2.61 | 0.615 | 1.25 | 0.599 | 1.15 | 0.54 | 1.02 | 0.667 | 1.38 | 0.564 | 1.07 | 0.577 | 1.24 | 0.52 | 0.992 | 0.571 | 1.06 | 0.568 | 1.11
CCN(CC)CCCNc1cc(OC)c(OC)c2cccnc12 | 3.05 | 14.8 | 10 | 23.2 | 15.6 | 49 | 2.22 | 34.4 | 1.85 | 26.1 | 12.8 | 31.1 | 2.38 | 10.5 | 2.15 | 29.7 | 15.7 | 32.9 | 20.6 | 51.1
CC1(C)CC[C@]2(CO)CC[C@]3(C)C(=CC[C@@H]4[C@@]5(C)CCNCC(C)(C)[C@@H]5CC[C@]43C)[C@@H]2C1 | 10.1 | 23 | 1.9 | 4 | 9.4 | 24.9 | 2.45 | 5.52 | 12.5 | 26.9 | 1.69 | 3.71 | 2.62 | 7.09 | 3.64 | 11.9 | 2.13 | 5.39 | 4.94 | 17.6
NC(=O)c1ncn2c(=O)n(CCCl)nnc12 | 23.7 | 205 |  | 305 |  | 496 |  | 279 | > 72.8 | 330 |  | 346 |  | 384 | 91.4 | 548 |  | 562 |  | 608
